Test results as given in PubChem BioAssay (NCI).
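Cells were grown in 96-well plates and exposed to each compound for 48 hours at five concentrations; endpoints were interpolated linearly between bracketing concentrations, or set to the highest concentration if not reached. TGI denotes the concentration required for complete inhibition of growth.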

Assays:
Test in all cases: growth of human tumour cells (NCI), 48 h
OVCAR-3 ovarian = tested on: OVCAR-3 ovarian
HOP-62 NSCLC = tested on: HOP-62 NSCLC
UACC-257 melanoma = tested on: UACC-257 melanoma
PC-3 prostate = tested on: PC-3 prostate
NCI/ADR-RES ovarian = tested on: NCI/ADR-RES ovarian
NCI-H522 lung = tested on: NCI-H522 lung
MALME-3M melanoma = tested on: MALME-3M melanoma
NCI-H23 lung = tested on: NCI-H23 lung
SNB-19 CNS = tested on: SNB-19 CNS
SNB-75 CNS = tested on: SNB-75 CNS
SK-MEL-5 melanoma = tested on: SK-MEL-5 melanoma
HS 578T breast = tested on: HS 578T breast
SK-OV-3 ovarian = tested on: SK-OV-3 ovarian
KM12 colon = tested on: KM12 colon
786-0 renal = tested on: 786-0 renal
MDA-MB-435 = tested on: MDA-MB-435
SK-MEL-28 melanoma = tested on: SK-MEL-28 melanoma
CCRF-CEM leukemia = tested on: CCRF-CEM leukemia
MOLT-4 leukemia = tested on: MOLT-4 leukemia
SF-295 CNS = tested on: SF-295 CNS
HCT-116 colon = tested on: HCT-116 colon
NCI-H460 lung = tested on: NCI-H460 lung
MDA-MB-231 breast = tested on: MDA-MB-231 breast
SF-539 CNS = tested on: SF-539 CNS
UACC-62 melanoma = tested on: UACC-62 melanoma
RPMI-8226 leukemia = tested on: RPMI-8226 leukemia
NCI-H226 lung = tested on: NCI-H226 lung
IGROV1 ovarian = tested on: IGROV1 ovarian
LOX IMVI melanoma = tested on: LOX IMVI melanoma
EKVX NSCLC = tested on: EKVX NSCLC
MCF7 breast = tested on: MCF7 breast
SR leukemia = tested on: SR leukemia
ACHN renal = tested on: ACHN renal
SK-MEL-2 melanoma = tested on: SK-MEL-2 melanoma
BT-549 breast = tested on: BT-549 breast
SW-620 colon = tested on: SW-620 colon
U251 CNS = tested on: U251 CNS
RXF 393 renal = tested on: RXF 393 renal
HL-60(TB) leukemia = tested on: HL-60(TB) leukemia
TK-10 renal = tested on: TK-10 renal
OVCAR-4 ovarian = tested on: OVCAR-4 ovarian
HCC-2998 colon = tested on: HCC-2998 colon
HT29 colon = tested on: HT29 colon
HOP-92 NSCLC = tested on: HOP-92 NSCLC
M14 melanoma = tested on: M14 melanoma
OVCAR-5 ovarian = tested on: OVCAR-5 ovarian
SN12C renal = tested on: SN12C renal
DU-145 prostate = tested on: DU-145 prostate
SF-268 CNS = tested on: SF-268 CNS
HCT-15 colon = tested on: HCT-15 colon
OVCAR-8 ovarian = tested on: OVCAR-8 ovarian
CAKI-1 renal = tested on: CAKI-1 renal
A498 renal = tested on: A498 renal
A549 NSCLC = tested on: A549 NSCLC
COLO 205 colon = tested on: COLO 205 colon

Measured: TGI

Cn1c2ccccc2c(=O)c2c(O)cc3c(c21)C=CC1(CCCC1)O3
> 100 µM: OVCAR-3 ovarian | HOP-62 NSCLC | UACC-257 melanoma | PC-3 prostate | NCI/ADR-RES ovarian | NCI-H522 lung | MALME-3M melanoma | NCI-H23 lung | SNB-19 CNS | SNB-75 CNS | SK-MEL-5 melanoma | HS 578T breast | SK-OV-3 ovarian | KM12 colon | 786-0 renal | MDA-MB-435 | SK-MEL-28 melanoma | CCRF-CEM leukemia | MOLT-4 leukemia | SF-295 CNS | HCT-116 colon | NCI-H460 lung | MDA-MB-231 breast | SF-539 CNS | UACC-62 melanoma | RPMI-8226 leukemia | NCI-H226 lung | IGROV1 ovarian | LOX IMVI melanoma | EKVX NSCLC | MCF7 breast | SR leukemia | ACHN renal | SK-MEL-2 melanoma | BT-549 breast | SW-620 colon | U251 CNS | RXF 393 renal | HL-60(TB) leukemia | TK-10 renal | OVCAR-4 ovarian | HCC-2998 colon | HT29 colon | HOP-92 NSCLC | M14 melanoma | OVCAR-5 ovarian | SN12C renal | DU-145 prostate | SF-268 CNS | HCT-15 colon | OVCAR-8 ovarian | CAKI-1 renal | A498 renal | A549 NSCLC | COLO 205 colon
